According to US20260378560A1, “APPROACHES TO DESIGNING AND PERFORMING COMPRESSED BIOLOGICAL EXPERIMENTS AND SYSTEMS FOR IMPLEMENTING THE SAME” (EXVIVO LABS INC., priority 2023, published 2026):

Tests used:
REH [1] = assay: Cell viability (CellTiter Glo), library of cancer drugs, individual or sample compression with randomized (alphabetical) pools, REH; format: cell-based; details: REH; for DRS: None (measured individually); for DRS from deconvolution: Samples, 7 Pick 3 randomized (alphabetical) sample pools
In short: (§1)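 Cells cultured with each drug individually at 1 nM–10 μM; viability by ATP luminescence (CellTiter Glo) to build dose-response curves and DRS. Samples read singly or pooled alphabetically (each drug in 3 of 7 pools), with pooled DRS recovered by additivity-based SUM deconvolution.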

MOLT-4 [2] = assay: Cell viability (CellTiter Glo), library of cancer drugs, individual or sample compression with randomized (alphabetical) pools, MOLT-4; format: cell-based; details: for DRS: MOLT-4, None (measured individually); for DRS from deconvolution: MOLT-4, Samples, 7 Pick 3 randomized (alphabetical) sample pools
In short: as §1

REH [3] = assay: Cell viability (CellTiter Glo), compressed perturbation pools with informed pool design, MAX-based deconvolution, REH; details: for DRS / DRS from MAX-based deconvolution / DRS, REH, MAX / top hit of cohort (deconvoluted effect size): REH; for DRS: None (measured individually), informed pool design table; for DRS from MAX-based deconvolution: Samples, 7 Pick 3 informed perturbation pools; for DRS, REH, MAX: compressed perturbation pools, informed pool design, MAX-based deconvolution; for top hit of cohort (deconvoluted effect size): informed perturbation pools;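 for DRS from MAX-based deconvolution: higher DRS means a larger drug effect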
In short: (§2)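 Drugs dosed from 1 nM to 10 μM with ATP-luminescence viability, giving a DRS per drug. Pools designed by drug class, with same-class drugs in separate cohorts and clinically toxic pairs kept apart.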

MOLT-4 [4] = assay: Cell viability (CellTiter Glo), compressed perturbation pools with informed pool design, MAX-based deconvolution, MOLT-4; details: for DRS: MOLT-4, None (measured individually), informed pool design table; for DRS from MAX-based deconvolution: MOLT-4, Samples, 7 Pick 3 informed perturbation pools; for DRS, MOLT-4, MAX: compressed perturbation pools, informed pool design, MAX-based deconvolution; for top hit of cohort (deconvoluted effect size): informed perturbation pools;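 for DRS from MAX-based deconvolution: higher DRS means a larger drug effect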
In short: as §2

REH [5] = assay: Cell viability (CellTiter Glo), compressed perturbation pools with informed pool design, SUM-based deconvolution, REH; parameters: scale not given here
Experimental: (§3) Total cell viability was measured for each sample using an ATP-based luminescence assay (i.e., CellTiter Glo). Each cancer drug was then screened at multiple concentrations ranging from one nM to ten μM in order to generate a dose-response curve and calculate a DRS for each cancer cell line.
(§4) Each cancer drug was cultured with target cells individually. At the end of the screen, samples were either analyzed individually or compressed into pools for analysis. The library was compressed alphabetically into ten cohorts, each of which contained seven cancer drugs present in three out of the seven pools, as shown in Table VII. Said another way, the screening platform 210 generated a “7 pick 3” compressed library by assigning the cancer drugs among different pools. […] The library was also compressed into ten cohorts with pools designed based on information known about each cancer drug, as shown in Table VIII. After cell viability measurement and DRS calculation, the DRS of each cancer drug in the samples generated based on the pools were deconvoluted and compared to the DRS for each cancer drug measured individually.
(§5) In parallel to the exemplary sample compression screen covered in Table VII, perturbations were compressed into pools and then screened. The pools were designed using drug class as a feature with two compression rules (or simply “rules”). The first rule required that drugs from the same class be separated into different cohorts (i.e., mutually exclusive groups of pools). The second rule separated PI3K pathway inhibitors from MAPK pathway inhibitors, as inhibiting these pathways in parallel is known to be synergistic but has not been clinically effective due to dose-limiting toxicities. A benefit of compressing perturbations is the ability to measure additive, antagonistic, and synergistic effects between drugs in the same pool. However, these effects can negatively impact deconvolution of individual drug effects. Therefore, combinations of drugs for which evidence of clinical toxicity exists can be assigned to different pools in accordance with an informed pooling operation. As new preclinical or clinical evidence of toxic combinations becomes available, the rules implemented by the screening platform 210—and more specifically, its algorithm for compressing members of a library—can be updated accordingly.
(§6) In SUM-based deconvolution, an assumption of additivity is used to quantify the individual effects of each perturbation on each target. Additivity implies that each perturbation effect on each target is positively contributing to the overall effect measured for that pool. This is an accurate assumption for certain experiments, such as when targets or samples are compressed. When targets are pooled—or when samples containing different targets are pooled—the effect of each perturbation on each individual target is diluted. In other words, each perturbation has an isolated effect on a target in culture, and the sum total of the isolated effects are measured when pooled. Therefore, SUM-based deconvolution breaks down the sum total measured for a pool and assigns estimated fractional effects to each compressed perturbation or target in the pool. The screening platform 210 used SUM-based deconvolution for all target and sample compression experiments described above.
(§7) As mentioned above, SUM-based deconvolution uses the overlapping pool design to identify relative relationships and ranges for the individual effects of each perturbation. When the overlapping pool design is not sufficient to solve for the polynomials representing perturbation effects, an anchor perturbation can be identified by the screening platform 210 based on rank order and assigned an effect size of zero. The anchor perturbation may be the lowest ranked perturbation in the rank order. This then enables the screening platform 210 to solve for the polynomials for the remaining perturbations.

MOLT-4 [6] = assay: Cell viability (CellTiter Glo), compressed perturbation pools with informed pool design, SUM-based deconvolution, MOLT-4; parameters: scale not given here
Experimental: as §3, §4, §5, §6, §7

| SMILES | DRS (REH [1]) | DRS from deconvolution (REH [1]) | DRS (MOLT-4 [2]) | DRS from deconvolution (MOLT-4 [2]) | DRS (REH [3]) | DRS from MAX-based deconvolution (REH [3]) | DRS, REH, MAX (REH [3]) | DRS (MOLT-4 [4]) | DRS from MAX-based deconvolution (MOLT-4 [4]) | DRS, MOLT-4, MAX (MOLT-4 [4]) | DRS, REH, SUM (REH [5]) | DRS, MOLT-4, SUM (MOLT-4 [6]) | effect on REH relative to MOLT cell line (REH [3]; REH relative to MOLT) | top hit of cohort (deconvoluted effect size) (REH [3]) | top hit of cohort (deconvoluted effect size) (MOLT-4 [4]; MOLT) | effect size relative to everolimus (MOLT-4 [4]; MOLT, Cohort 10) |
| --- | --- | --- | --- | --- | --- | --- | --- | --- | --- | --- | --- | --- | --- | --- | --- | --- |
| Cc1nc(NC(=O)N2CCC[C@H]2C(N)=O)sc1-c1ccnc(C(C)(C)C(F)(F)F)c1 [Alpelisib] | 0.79 | 0.75 | 1.79 | 1.94 | 0.21 | 0.35 | 3.57 | 0.01 | 0.00 | 0.00 | 1.12 | 0.00 | – | – | – | – |
| COc1cc2ncnc(Nc3ccc(F)c(Cl)c3)c2cc1NC(=O)/C=C/CN1CCCCC1 [Dacomitinib] | 3.10 | 3.15 | 2.60 | 2.53 | 0.00 | 0.00 | 0.00 | 0.00 | 0.00 | 0.00 | 1.33 | 0.99 | – | – | – | – |
| COc1cc2nccc(Oc3ccc(NC(=O)NC4CC4)c(Cl)c3)c2cc1C(N)=O [Lenvatinib] | 0.14 | 0.00 | 0.74 | 0.77 | 0.00 | 0.00 | 0.00 | 0.00 | 0.00 | 0.00 | 0.00 | 0.89 | – | – | – | – |
| CO[C@H]1C[C@@H]2CC[C@@H](C)[C@@](O)(O2)C(=O)C(=O)N2CCCC[C@H]2C(=O)O[C@H]([C@H](C)C[C@@H]2CC[C@@H](OC(=O)C(C)(CO)CO)[C@H](OC)C2)CC(=O)[C@H](C)/C=C(\C)[C@@H](O)[C@@H](OC)C(=O)[C@H](C)C[C@H](C)/C=C/C=C/C=C/1C [Temsirolimus] | 8.19 | 8.71 | 2.99 | 3.21 | 8.19 | 9.23 | 9.23 | 2.99 | 3.88 | 3.88 | 9.71 | 2.54 | much larger effects on the REH cell line | top hit | top hit | – |
| CCOc1cc2ncc(C#N)c(Nc3ccc(OCc4ccccn4)c(Cl)c3)c2cc1NC(=O)/C=C/CN(C)C [Neratinib] | 2.58 | 2.32 | 4.08 | 4.32 | 29.39 | 34.11 | 3.06 | 29.89 | 35.00 | 4.35 | 0.37 | 2.74 | – | – | – | larger effect size than everolimus |
| Cc1ccc(Nc2nccc(N(C)c3ccc4c(C)n(C)nc4c3)n2)cc1S(N)(=O)=O [Pazopanib] | 5.88 | 5.90 | 0.68 | 0.00 | 3.93 | 4.01 | 7.06 | 3.50 | 0.00 | 5.39 | 8.02 | 2.41 | – | – | – | – |
| CCN1CCN(Cc2ccc(Nc3ncc(F)c(-c4cc(F)c5nc(C)n(C(C)C)c5c4)n3)nc2)CC1 [Abemaciclib] | 2.40 | 2.57 | 0.50 | 0.55 | 13.34 | 15.14 | 0.00 | 15.70 | 17.03 | 0.00 | 2.69 | 1.08 | – | – | – | – |
| CC(C)C[C@H](NC(=O)[C@H](Cc1ccccc1)NC(=O)c1cnccn1)B(O)O [Bortezomib] | 27.70 | 28.16 | 25.00 | 25.41 | 2.40 | 2.90 | 31.61 | 2.50 | 2.76 | 28.24 | 22.86 | 23.95 | – | top hit | top hit | – |
| CO[C@H]1C(=O)[C@]2(C)[C@@H](OC)C[C@H]3OC[C@@]3(OC(C)=O)[C@H]2[C@H](OC(=O)c2ccccc2)[C@]2(O)C[C@H](OC(=O)[C@H](O)[C@@H](NC(=O)OC(C)(C)C)c3ccccc3)C(C)=C1C2(C)C [Cabazitaxel] | 29.39 | 29.52 | 29.89 | 30.06 | 0.01 | 0.00 | – | 0.01 | 0.00 | – | – | – | – | – | – | – |
